In patent publication US8293721B2, “CETP inhibitors derived from benzoxazole arylamides” (Merck Sharpe & Dohme Corp., priority 2007, dated 2012) one finds IC50 data, which are given here for 10 compounds.

pIC50: −log10 of the molar value.

This assay has as its target T1, recombinant human CETP (Homo sapiens, UniProt P11597).
T1 construct: made in house; host or cells: CHO cells
T1 sequence (P11597 18-493): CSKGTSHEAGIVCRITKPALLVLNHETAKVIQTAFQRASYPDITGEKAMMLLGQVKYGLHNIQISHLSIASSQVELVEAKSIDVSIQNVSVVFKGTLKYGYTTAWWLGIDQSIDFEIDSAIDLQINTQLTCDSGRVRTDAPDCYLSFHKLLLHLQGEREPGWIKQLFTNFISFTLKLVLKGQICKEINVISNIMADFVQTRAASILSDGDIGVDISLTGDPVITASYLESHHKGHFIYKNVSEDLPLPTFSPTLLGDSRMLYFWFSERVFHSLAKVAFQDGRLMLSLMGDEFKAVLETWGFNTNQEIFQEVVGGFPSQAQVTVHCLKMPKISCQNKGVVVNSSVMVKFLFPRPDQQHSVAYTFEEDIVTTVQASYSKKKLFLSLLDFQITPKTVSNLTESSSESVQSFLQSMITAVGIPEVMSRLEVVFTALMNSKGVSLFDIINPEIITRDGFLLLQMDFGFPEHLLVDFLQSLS
Put plainly: In vitro continuous CETP assay, CE transfer reaction (BODIPY-CE donor particles, fluorescence). The class given is biochemical. As to conditions: 25° C., 3% human serum, stated for the compounds 'or a stereoisomer of the compounds', read-out: IC50 value as measured for the CE transfer reaction. Here is the method:
An in vitro continuous assay for determining IC50's to identify compounds that are CETP inhibitors was performed based on a modification of the method described by Epps et al. employing BODIPY®-CE as the cholesteryl ester lipid donor and BODIPY®-TG as the triglyceride lipid donor. See Epps et al. (1995) Method for measuring the activities of cholesteryl ester transfer protein (lipid transfer protein), Chem. Phys. Lipids. 77, 51-63.
Particles used in the assay were created from the following materials by probe sonication essentially as described by Epps et al. Synthetic cholesteryl ester (CE) donor HDL particles contained DOPC (Dioleoyl Phosphatidyl Choline), BODIPY®-CE (Molecular Probes C-3927), triolein (a triglyceride), dabcyl dicetylamide, (a non-diffusable quencher molecule to reduce background fluorescence) and apoHDL. Synthetic triglyceride (TG) donor HDL particles contained DOPC, BODIPY®-TG, and apoHDL. BODIPY®-TG was synthesized at room temperature from diolein and the BODIPY containing fatty acid analog 4,4-difluoro-5-(2-thienyl)-4-bora-3a,4a-diaza-s-indacene-3-dodecanoic acid (Molecular Probes) in methylene chloride in the presence of dicyclohexyl carbodimide. Dabcyl dicetylamide was made by heating dabcyl n-succinimide with dicetylamine in DMF at 95° C. overnight in the presence of diisopropylamine catalyst. Native lipoproteins from human blood were used as acceptor particles. Particles having a density less than 1.063 g/ml were collected by ultracentrifugation. These particles include VLDL, IDL, and LDL. Particle concentrations were expressed in terms of protein concentration as determined by BCA assay (Pierce, USA). Particles were stored at 4° C. until use.
Assays were performed in Dynex Microfluor 2 U-bottom black 96-well plates (Cat #7205). An assay cocktail containing CETP, 1×CETP buffer (50 mM Tris, pH 7.4, 100 mM NaCl, 1 mM EDTA), 3% human serum, and half the final concentration of acceptor particles was prepared, and 100 μL of the assay cocktail was added to each well of the plate. Test compounds in DMSO were added in a volume of 3 μL. The plate was mixed on a plate shaker and then incubated at 25° C. for 1 hour. A second assay cocktail containing donor particles, the remaining acceptor particles and 1×CETP buffer was prepared. 47 μL of the second assay cocktail was added to the reaction wells to start the assay. Assays were performed in a final volume of 150 μL. CE transfer reactions were performed as follows: final concentrations of materials were: 2.5 ng/μL CE donor particles, 7.5 ng/μL acceptor particles (each expressed by protein content), 1×CETP buffer, 14-30 nM recombinant human CETP (expressed in CHO cells and partially purified), and up to 2% DMSO when testing compounds; reactions were followed in a fluorescence plate reader (Molecular Devices Spectramax GeminiXS) set for a 45 minute kinetic run at 25° C. which read the samples every 45 sec at Ex=480 nm, Em=511 nm, with a cutoff filter at 495 nm, photomultiplier tube setting of medium, calibration on, and 6 reads/well. TG transfer reactions were performed as described above with the exception that 2.5 ng/uL TG donor particles were used. TG transfer was measured at an excitation wavelength of 538 nm while reading emission at 568 nm every 45 sec for 45 min at 37° C. with a cutoff filter at 550 nm.
Data were evaluated by obtaining an initial rate, expressed in relative fluorescence units per second, for the pseudolinear portion of the curve, often 0-500 or 1000 sec. Comparison of the rates of samples with inhibitors to an uninhibited (DMSO only) positive control yielded a percent inhibition. A plot of percent inhibition vs. log of inhibitor concentration, fit to a Sigmoidal 4 parameter equation was used to calculate IC50.
Consider `CC(C)c1cc(C#N)cc2nc(-c3ccc(C(=O)NCC4CN(c5ccc(-c6ccccc6OC(F)(F)F)cn5)C(=O)O4)cc3)oc12` (stereo not shown) [Example 2, 4-(5-Cyano-7-isopropyl-1,3-benzoxazol-2-yl)-N-[(2-oxo-3-{5-[2-(trifluoromethoxy)phenyl]pyridin-2-yl}-1,3-oxazolidin-5-yl)methyl]benzamide], for which the pIC50 is 7.00 to 7.74.

For the compound `CC(C)COc1ccccc1-c1ccc(N2CC(CNC(=O)c3ccc(-c4nc5cc(C#N)cc(C(C)C)c5o4)cc3)OC2=O)nc1` (stereo not shown) [Example 7], the pIC50 was 7.00 to 7.74.

Consider `CC(C)Oc1ccc(F)cc1-c1ccc(N2C[C@@H](CNC(=O)c3ccc(-c4nc5cc(C#N)cc(C(C)C)c5o4)cc3)OC2=O)nc1` [Example 30], for which the pIC50 was 7.00 to 7.74.

For `COc1cc(F)c(C(C)C)cc1-c1ccc(N2C[C@@H](CNC(=O)c3ccc(-c4nc5cc(C#N)cc(C(C)C)c5o4)cc3)OC2=O)nc1` [Example 31], the pIC50 was 7.00 to 7.74.

On to `COc1ccccc1-c1ccc(N2C[C@H](CNC(=O)c3ccc(-c4nc5cc(C#N)cc(C(C)C)c5o4)cc3)OC2=O)nc1` [Example 43], for which the negative logarithm of the IC50 (pIC50) is 7.00 to 7.74.

With `CC(C)Oc1cccc(F)c1-c1ccc(N2C[C@H](CNC(=O)c3ccc(-c4nc5cc(C#N)cc(C(C)C)c5o4)cc3)OC2=O)nc1` [Example 48], the pIC50 was 7.00 to 7.74.

For the compound `CC(C)c1cc(C#N)cc2nc(-c3ccc(C(=O)NCC4(C)CN(c5ccc(-c6ccccc6OC(F)(F)F)cn5)C(=O)O4)cc3)oc12` (stereo not shown) [Example 51, 4-(5-Cyano-7-isopropyl-1,3-benzoxazol-2-yl)-N-[(5-methyl-2-oxo-3-{5-[2-(trifluoro-methoxy)phenyl]pyridin-2-yl}-1,3-oxazolidin-5-yl)methyl]benzamide], the pIC50 is 7.00 to 7.74.

Regarding `COc1ccccc1-c1ccc(N2CC(C)(CNC(=O)c3ccc(-c4nc5cc(C#N)cc(C(C)C)c5o4)cc3)OC2=O)nc1` (stereo not shown) [Example 53], the pIC50 is 7.00 to 7.74.

`CC(C)Oc1ccc(F)cc1-c1ccc(N2CC(C)(CNC(=O)c3ccc(-c4nc5cc(C#N)cc(C(C)C)c5o4)cc3)OC2=O)nc1` (stereo not shown) [Example 54]: the pIC50 was 7.00 to 7.74.

Consider `CC(C)c1cc(C#N)cc2nc(-c3ccc(C(=O)NCC4(C)CN(c5ccc(-c6ccccc6)cn5)C(=O)O4)cc3)oc12` (stereo not shown) [Example 55], for which the pIC50 is 7.00 to 7.74.

The term pIC50 denotes the IC50 on a negative log10 scale, so that one unit is a factor of ten.
